Data reported in PMC4336331, “Novel Receptor-Derived Cyclopeptides to Treat Heart Failure Caused by Anti-β1-Adrenoceptor Antibodies in a Human-Analogous Rat Model” (PLoS ONE, 2015).
Like-named read-outs stand apart in the source and are kept apart here. Peptide text beside a SMILES is read from it.

How the values were obtained:
[1] = test system: anti-β1EC2-induced heart failure (β1EC2/GST-FP-immunised rats); assay: Echocardiography and catheterisation, cardiomyopathic phenotype, therapy-study; type: in vivo, Lewis/CrlBR rats; settings: echocardiography and catheterisation (Fig. 2G, H; S2 Fig.)
Protocol: (§1) In brief, n = 76 two months old Lewis/CrlBR rats were either s.c. immunised with 50 μg β1EC2/GST-FP, or n = 38 rats were control-injected with 0.9% NaCl (t = 0). To maintain high anti-β1EC2-titers, all immunised rats were boosted with β1EC2/GST-FP (or 0.9% NaCl) every month over 20 months as previously described. Application of the different linear or cyclic β1-AR peptides (corresponding to the primary AA-sequence of either the first (β1EC1) or the 2nd extra-cellular β1-AR loop (β1EC2)) or the β1-receptor blocker bisoprolol was initiated either 6 weeks after the 1st immunisation (i.e. 15 days after the 1st boost, prevention-study), or 8.5 months after the 1st immunisation (therapy-study).
In brief, the rats were lightly anaestetised (30 mg/kg ketamine-HCl and 5 mg/kg xylazine i.p.), shaved (chest), and placed supine on a special table. M-mode tracings were recorded at baseline (before immunisation), and subsequently every four months in the parasternal long and short axis views according to the guidelines of the American Society for Echocardiography. Pulsed-wave Doppler spectra were recorded from the apical five-chamber view and the velocity-time integral (VTI) of the transaortic flow served to calculate cardiac output (CO [ml/min] = Aortic VTI x (π [LV-outflow tract diameter/2]^2) x bpm).

[2] = test system: anti-β1EC2-induced heart failure (β1EC2/GST-FP-immunised rats); assay: Left heart catheterisation (haemodynamics), therapy-study; type: in vivo, Lewis/CrlBR rats; settings: LV catheterisation month 20, mean ±SEM
Protocol: as §1

[3] = test system: anti-β1EC2-induced heart failure (β1EC2/GST-FP-immunised rats); assay: Relative organ wet weights and body weight, therapy-study; settings: immunised anti-β1EC2-positive rats, from 8.5 months after 1st immunisation peptides 1.0 mg/kg i.v. every 4 weeks, bisoprolol 15 mg/kg/day orally, over 12 months, month 20, mean ±SEM
Protocol: as §1
After the hearts all other relevant inner organs (e.g., lung, liver, spleen, kidneys, brain, and eyes) were removed, rinsed with ice-cold PBS, weighed, sectioned, and fixed for further histologic analysis.

cardiac β1-ARs = assay: Radioligand binding of cardiac membranes (125I-CYP); type: in vivo, Lewis/CrlBR rats; settings: 125I-cyanopindolol binding to cardiac membranes, CGP20712A competition (Fig. 4A and B)
Protocol: Membranes from apical cardiac tissues from rats of each study-group were prepared as previously described. To determine total β-AR density (Bmax), 35μg membrane protein were incubated (1.5 h, 25°C) in binding buffer with 200pM of the non-selective β-AR antagonist ^125I-cyanopindolol (^125I-CYP; Perkin Elmer Life and Analytical Sciences, Billerica, MA). Non-specific binding was determined with 5μM unlabeled L-propranolol. The proportion of β1- and β2-AR subtypes was estimated from biphasic competition-curves with 10^-10 to 10^-2 M of the unlabeled β1-selective antagonist CGP20712A (Sigma). The reaction was stopped by rapid filtration (Whatman GF/C filters) and washing with ice-cold buffer. Filter-bound radioactivity was measured by γ-counting. Estimates of maximal binding (Bmax) and the proportion of β1- and β2-AR-subtypes were calculated with GraphPad Prism 5.00 (San Diego, CA).
Fig 4 Cardiac adrenergic system and molecular markers. […] Columns ± error bars represent the level of expression of the indicated markers ±SEM in cardiac tissues from the indicated treatment-groups compared to values from 0.9% NaCl-injected rats (controls, set at 100%), as determined by qRT-PCR normalised to GAPDH (one way ANOVA and Dunnett`s post-hoc test; *p<0.05; **p<0.001).

[4] = test system: anti-β1EC2-induced heart failure (β1EC2/GST-FP-immunised rats); settings: therapy-study, end of study, mean ±SEM
Protocol: as §1
From paraffin-embedded heart preparations cavity- and wall-dimensions were determined by computer-aided analysis of H&E-stained mid-ventricular 2μm-sections as previously described. H&E-stained paraffin-sections also served to quantify damaged and fibrotic cardiac areas (scars). For detection of mast cells, deparaffinised cardiac sections were stained with acidified (pH<2.5) toluidine blue 0.1% (Sigma). The number of toluidine-positive cells was normalized to square millimeter of cardiac tissue. TUNEL-positive cells were quantified in 2μm mid-ventricular paraffin-sections using a TMR Red in Situ Death Detection Kit (Roche, Basel, Switzerland). Only the total number of TUNEL-postive cells/section was determined without further differentiation of the specific apoptotic cell type (e.g., fibroblasts, endothelial cells, cardiomyocytes).

anti-β1EC2-antibodies = assay: Free anti-β1EC2-titers by ELISA, therapy-study; type: in vivo, Lewis/CrlBR rats; settings: peptides 1.0 mg/kg/month i.v., bisoprolol 15 mg/kg/day orally (S1 Fig., Fig. 2F)
Protocol: as §1
(TIF) Click here for additional data file.

[5] = Plasma half-life in vivo of 123I-(tyrosine)-labeled peptides; settings: 123I-(tyrosine)-labeled peptide, 1.4 to 1.8 MBq/animal injected; central venous blood samples gamma-counted 2, 4, 6, 8, 10, 20, 30, 60 min after injection; difference n.s.
[6] = immunised anti-β1EC2-positive rats, from 8.5 months after 1st immunisation peptides 1.0 mg/kg i.v. every 4 weeks, bisoprolol 15 mg/kg/day orally, over 12 months
[7] = non-immunised 0.9% NaCl-injected rats, EC2-CP 1.0 mg/kg i.v. every 4 weeks or bisoprolol 15 mg/kg/day orally over 12 months

With `CC(C)NCC(O)COc1ccc(COCCOC(C)C)cc1` (stereo not shown) [bisoprolol, reference compound] the “cardiomyopathic phenotype, in words” value [1] was “only stopped further disease-progression”, the “+dP/dt (contractilility)” value [2, 6] was 5697 ± 231 mmHg/s and the “-dP/dt (relaxation)” value [2, 6] was 4238 ± 117 mmHg/s. For the same compound, the “HF (heart frequence)” value [2, 6] was 173 ± 3 bpm, the “LVEDP (LV end-diastolic pressure)” value [2, 6] was 10.9 ± 1.3 mmHg and the “LVSP (maximal systolic LV-pressure)” value [2, 6] was 108 ± 2 mmHg. The “+dP/dt (contractilility)” value [2, 7] was 6018 ±308 mmHg/s, the “-dP/dt (relaxation)” value [2, 7] was 4646 ± 295 mmHg/s and the “HF (heart frequence)” value [2, 7] was 168 ± 6 bpm. The “LVEDP (LV end-diastolic pressure)” value [2, 7] was 9.7 ± 0.9 mmHg, the “LVSP (maximal systolic LV-pressure)” value [2, 7] was 104 ± 4 mmHg and the “Heart, relative (wet) weight” value [3] was 2.93 ± 0.11 mg/g. For the same compound, the “Liver, relative (wet) weight” value [3] was 21.61 ± 1.47 mg/g, the “Lung, relative (wet) weight” value [3] was 2.88 ± 0.10 mg/g and the “cardiac β1-AR density (downregulation), in words” value (cardiac β1-ARs) was “small increase”. For the same compound, the “IVS (thickness of the inter-ventricular septum)” value (“IVS” for short) [4, 6] was 1.7 ±0.1 mm, the “LVA (total LV-area)” value [4, 6] was 61.9 ±5.2 mm2 and the “LVCA (LV-cavity area)” value [4, 6] was 26.8 ±1.0 mm2. For the same compound, the “LVWA (LV wall area)” value [4, 6] was 35.0 ±4.5 mm2, the “PW (posterior wall thickness)” value [4, 6] was 1.5 ±0.1 mm and the “IVS” value [4, 7] was 1.8 ±0.1 mm. For the same compound, the “LVA (total LV-area)” value [4, 7] was 58.4 ±0.7 mm2, the “LVCA (LV-cavity area)” value [4, 7] was 22.6 ±0.2 mm2 and the “LVCA / LVA %” value [4, 7] was 38.7 ±0.5%. For the same compound, the “LVWA (LV wall area)” value [4, 7] was 35.8 ±0.5 mm2, the “PW (posterior wall thickness)” value [4, 7] was 1.8 ±0.1 mm and the “effect on anti-β1EC2-titers, in words” value (anti-β1EC2-antibodies) was “no effect”.
In the case of `CC(C)[C@H](NC(=O)[C@H](Cc1ccccc1)NC(=O)[C@H](CC(=O)O)NC(=O)[C@H](CS)NC(=O)[C@H](CS)NC(=O)[C@H](CCCCN)NC(=O)[C@@H]1CCCN1C(=O)[C@H](CC(=O)O)NC(=O)[C@H](CC(N)=O)NC(=O)[C@H](Cc1ccc(O)cc1)NC(=O)[C@H](CS)NC(=O)[C@H](CCCNC(=N)N)NC(=O)[C@H](CCCNC(=N)N)NC(=O)[C@H](C)NC(=O)[C@H](CCC(=O)O)NC(=O)[C@H](CC(=O)O)NC(=O)[C@H](CO)NC(=O)[C@H](CCC(=O)O)NC(=O)[C@H](C)NC(=O)[C@H](CCCNC(=N)N)NC(=O)[C@H](C)N)C(=O)N[C@H](C(=O)N[C@@H](CC(N)=O)C(=O)N[C@@H](CCCNC(=N)N)C(=O)NCC(N)=O)[C@@H](C)O` [β1EC2-Lin] (H-ARAESDEARRCYNDPKCCDFVTNRG-NH2; N-terminus and C-terminus assumed), the “plasma-half life in vivo (t ½)” value [5] is reported as 3.9 ± 2.2 min, the “cardiomyopathic phenotype, in words” value [1] is reported as “failed to elicit any cardiopotective effects” and the “-dP/dt (relaxation)” value [2, 6] is reported as 4857 ±157 mmHg/s. For the same compound, the “HF (heart frequence)” value [2, 6] was 210 ±6 bpm, the “LVEDP (LV end-diastolic pressure)” value [2, 6] was 14.5 ±1.2 mmHg and the “LVSP (maximal systolic LV-pressure)” value [2, 6] was 116 ±4 mmHg. For the same compound, the “Heart, relative (wet) weight” value [3] was 2.88 ± 0.24 mg/g, the “Kidney L, relative (wet) weight” value [3] was 2.32 ± 0.14 mg/g and the “Kidney R, relative (wet) weight” value [3] was 2.36 ± 0.20 mg/g. For the same compound, the “Liver, relative (wet) weight” value [3] was 22.64 ± 0.59 mg/g, the “Lung, relative (wet) weight” value [3] was 2.77 ± 0.12 mg/g and the “Spleen, relative (wet) weight” value [3] was 1.49 ± 0.09 mg/g. For the same compound, the “Weight (body weight)” value [3] was 598 ± 38 g, the “IVS” value [4, 6] was 1.5 ±0.1 mm and the “LVA (total LV-area)” value [4, 6] was 71.2 ±3.5 mm2. For the same compound, the “LVCA (LV-cavity area)” value [4, 6] was 32.7 ±1.3 mm2, the “LVWA (LV wall area)” value [4, 6] was 38.5 ±2.4 mm2 and the “PW (posterior wall thickness)” value [4, 6] was 1.6 ±0.1 mm. For the same compound, the “effect on anti-β1EC2-titers, in words” value (anti-β1EC2-antibodies) was “only negligible effects”.
